Experimental data as given in patent US8183236B2, “Compounds with HIV-1 integrase inhibitory activity and use thereof as anti-HIV/AIDS therapeutics” (University of Southern California, priority 2007, dated 2012).

Target: T1, HIV-1 integrase (wild-type IN) (Human immunodeficiency virus type 1 group M subtype B, UniProt P12497)
Assay: HIV-1 integrase strand transfer assay (32P-labeled 21-mer, gel)
Type: biochemical
Details: unit inferred; read-out: HIV-1 IN Inhibitory Activities Strand transfer
Description: (§1) The oligonucleotides 21 top, 5′-[…]-3′ (SEQ ID NO:1) and 21 bot, 5′-[…]-3′ (SEQ ID NO:2) were purchased from Norris Cancer Center Core Facility (University of Southern California) and purified by UV shadowing on polyacrylamide gel. To analyze the extent of 3′-processing and strand transfer using 5′-end labeled substrates, 21 top was 5′-end labeled using T4 polynucleotide kinase (Epicentre, Madison, Wis.) and γ [^32P]-ATP (Amersham Biosciences or ICN). The kinase was heat-inactivated and 21 bot was added in 1.5-molar excess. The mixture was heated at 95° C., allowed to cool slowly to room temperature, and run through a spin 25 mini-column (USA Scientific) to separate annealed double-stranded oligonucleotide from unincorporated material.
(§2) To determine the extent of 3′-processing and strand transfer, wild-type IN was preincubated at a final concentration of 200 nM with the inhibitor in reaction buffer (50 mM NaCl, 1 mM HEPES, pH 7.5, 50 μM EDTA, 50 μM dithiothreitol, 10% glycerol (w/v), 7.5 mM MnCl2, 0.1 mg/ml bovine serum albumin, 10 mM 2-mercaptoethanol, 10% dimethyl sulfoxide, and 25 mM MOPS, pH 7.2) at 30° C. for 30 min. Then, 20 nM of the 5′-end ^32P-labeled linear oligonucleotide substrate was added, and incubation was continued for an additional one hour. Reactions were quenched by the addition of an equal volume (16 μl) of loading dye (98% deionized formamide, 10 mM EDTA, 0.025% xylene cyanol and 0.025% bromophenol blue). An aliquot (5 μl) was electrophoresed on a denaturing 20% polyacrylamide gel (0.09 M tris-borate pH 8.3, 2 mM EDTA, 20% acrylamide, 8M urea).
(§3) Gels were dried, exposed in a PhosphorImager cassette, and analyzed using a Typhoon 8610 Variable Mode Imager (Amersham Biosciences) and quantitated using ImageQuant 5.2. Percent inhibition (% I) was calculated using the following equation: %I=100×[1−(D−C)/(N−C)]
(§4) where C, N, and D are the fractions of 21-mer substrate converted to 19-mer (3′-processing product) or strand transfer products for DNA alone, DNA plus IN, and IN plus drug, respectively. The IC50 values were determined by plotting the logarithm of drug concentration versus percent inhibition to obtain concentration that produced 50% inhibition. […]

| SMILES | IC50 [µM] |
| --- | --- |
| O=C(O)CCCCCN1C(=O)C(O)=C(C(=O)c2ccc(Cl)cc2)C1c1ccc2c(c1)OCO2 (stereo not drawn) [Compound T38] | 20 |
| CC(=O)C1=C(O)C(=O)N(CC(=O)O)C1c1ccc(Br)cc1 (stereo not drawn) [Compound X36] | > 100 |
| Cc1ccc(C2C(C(=O)c3ccc(Cl)cc3)=C(O)C(=O)N2CC(=O)O)cc1 (stereo not drawn) [Compound X81] | 69 |
| COc1ccc2oc(=O)c(-c3csc(N/N=C/c4ccccc4O)n3)cc2c1 [Compound X143] | 10 |
| COc1ccc2oc(=O)c(-c3csc(N/N=C/c4ccco4)n3)cc2c1 [Compound X144] | 29 |
| Cc1ccc(C(=O)C2=C(O)C(=O)N(CCCn3ccnc3)C2c2ccc(Cl)cc2)cc1 (stereo not drawn) [Compound X155] | 67 |

Same assay, conditions: unit inferred; read-out: IN inhibition activity Strand transfer

| SMILES | IC50 [µM] |
| --- | --- |
| O=C(O)c1cccc(-c2ccc(/C=N/N(c3ccccc3)c3ccccc3)o2)c1 [AV15A27] | 26 ± 12 |
| O=C(O)c1ccc(-c2ccc(/C=N/Nc3nc(Nc4ccccc4)nc(Nc4ccccc4)n3)o2)cc1O [AV15A28] | > 100 |
| N#C/C(=C\c1ccc(-c2ccc(C(=O)O)c(O)c2)o1)c1nc2ccccc2[nH]1 [AV15A31] | 24 |
| Cc1cc2nc3s/c(=C\c4ccc(-c5cccc(C(=O)O)c5)o4)c(=O)n3c2cc1C [AV15A32] | > 100 |
| CC(C)(C)c1ccc(OCC(=O)N/N=C/c2ccc(-c3cccc(C(=O)O)c3)o2)cc1 [AV15A35] | 86 |
| CC(C)(C)c1ccc(C(=O)N/N=C/c2ccc(-c3cccc(C(=O)O)c3)o2)cc1 [AV15A36] | 56 ± 22 |
| Cc1nnc(N/N=C/c2ccc(-c3ccccc3C(=O)O)o2)n1N [AV15A37] | > 100 |
| COc1cc(C(=O)N/N=C/c2ccc(-c3cccc(C(=O)O)c3)o2)cc(OC)c1OC [AV15A38] | 49 ± 12 |
| Clc1ccc(-c2ccc(/C=N/Nc3nc(Nc4ccccc4)nc(Nc4ccccc4)n3)o2)cc1 [AV15A39] | > 100 |
| O=C(N/N=C/c1ccc(-c2ccc(Cl)c(C(=O)O)c2)o1)c1ccncc1 [AV15A40] | 46 ± 23 |
| O=C(N/N=C/c1ccc(-c2ccc(Cl)c(C(=O)O)c2)o1)c1ccc(F)cc1 [AV15A41] | > 100 |
| O=C(O)c1cccc(-c2ccc(/C=N/Nc3nc4ccccc4s3)o2)c1 [AV15A43] | 24 ± 11 |
| CC1=C(C#N)c2nc(N)c(C#N)c(C)c2/C1=C/c1ccc(-c2ccc(C(=O)O)c(Cl)c2)o1 [AV15A44] | 68 ± 22 |
| CC1=C(C#N)c2nc(N)c(C#N)c(C)c2/C1=C/c1ccc(-c2ccccc2C(=O)O)o1 [AV15A45] | 39 |
| COC(=O)c1ccccc1-c1ccc(/C=C(\C#N)c2nc3ccccc3[nH]2)o1 [AV15A46] | > 100 |
| O=C(Cc1ccc(F)cc1)N/N=C/c1ccc(-c2ccc(Cl)c(C(=O)O)c2)o1 [AV15A47] | > 100 |
| CC1=C(C#N)c2nc(N)c(C#N)c(C)c2/C1=C/c1ccc(-c2ccc(F)cc2)o1 [AV15A48] | > 100 |
| CC1=C(C#N)c2nc(N)c(C#N)c(C)c2/C1=C/c1ccc(-c2ccccc2C(=O)O)o1 [AV15A54] | > 100 |
| O=C(O)c1cccc(-c2ccc(/C=N/Nc3nc4nonc4nc3Nc3ccc(F)cc3)o2)c1 [AV30] | 4 ± 1 |
| CC(C)(C)c1ccc(C2C(C(=O)c3ccc(F)cc3)=C(O)C(=O)N2c2nncs2)cc1 (stereo not drawn) [Compound M28A2] | 43 ± 8 |
| O=C(O)CCCCCN1C(=O)C(O)=C(C(=O)c2ccc(Cl)cc2)C1c1ccc2c(c1)OCO2 (stereo not drawn) [Compound T38] | 20 |
| Cc1ccc(C2C(C(=O)c3ccc(Cl)cc3)=C(O)C(=O)N2CC(=O)O)cc1 (stereo not drawn) [Compound X81] | 69 ± 36 |
| Cc1ccc(C(=O)C2=C(O)C(=O)N(CCCn3ccnc3)C2c2ccc(Cl)cc2)cc1 (stereo not drawn) [Compound X155] | 67 ± 28 |

Same assay, conditions: wild-type IN 200 nM, 7.5 mM MnCl2; read-out: Inhibition of IN Catalytic Activities IC50 (μM) Strand Transfer

| SMILES | IC50 [µM] |
| --- | --- |
| O=C(O)c1cccc(-c2ccc(/C=N/Nc3nc4nonc4nc3Nc3ccc(F)cc3)o2)c1 [AV30] | 4 |

Target: T1, HIV-1 integrase (wild-type IN)
Assay: HIV-1 integrase 3′-processing assay (32P-labeled 21-mer, gel)
Type: biochemical
Details: unit inferred; read-out: HIV-1 IN Inhibitory Activities 3′-processing
Description: as §1, §2, §3, §4

| SMILES | IC50 [µM] |
| --- | --- |
| O=C(O)CCCCCN1C(=O)C(O)=C(C(=O)c2ccc(Cl)cc2)C1c1ccc2c(c1)OCO2 (stereo not drawn) [Compound T38] | 25 |
| CC(=O)C1=C(O)C(=O)N(CC(=O)O)C1c1ccc(Br)cc1 (stereo not drawn) [Compound X36] | > 100 |
| Cc1ccc(C2C(C(=O)c3ccc(Cl)cc3)=C(O)C(=O)N2CC(=O)O)cc1 (stereo not drawn) [Compound X81] | 84 |
| COc1ccc2oc(=O)c(-c3csc(N/N=C/c4ccccc4O)n3)cc2c1 [Compound X143] | 30 |
| COc1ccc2oc(=O)c(-c3csc(N/N=C/c4ccco4)n3)cc2c1 [Compound X144] | 78 |
| Cc1ccc(C(=O)C2=C(O)C(=O)N(CCCn3ccnc3)C2c2ccc(Cl)cc2)cc1 (stereo not drawn) [Compound X155] | 93 |

Same assay, conditions: unit inferred; read-out: IN inhibition activity 3′-processing

| SMILES | IC50 [µM] |
| --- | --- |
| O=C(O)c1cccc(-c2ccc(/C=N/N(c3ccccc3)c3ccccc3)o2)c1 [AV15A27] | 42 ± 24 |
| O=C(O)c1ccc(-c2ccc(/C=N/Nc3nc(Nc4ccccc4)nc(Nc4ccccc4)n3)o2)cc1O [AV15A28] | > 100 |
| N#C/C(=C\c1ccc(-c2ccc(C(=O)O)c(O)c2)o1)c1nc2ccccc2[nH]1 [AV15A31] | 34 |
| Cc1cc2nc3s/c(=C\c4ccc(-c5cccc(C(=O)O)c5)o4)c(=O)n3c2cc1C [AV15A32] | > 100 |
| CC(C)(C)c1ccc(OCC(=O)N/N=C/c2ccc(-c3cccc(C(=O)O)c3)o2)cc1 [AV15A35] | > 100 |
| CC(C)(C)c1ccc(C(=O)N/N=C/c2ccc(-c3cccc(C(=O)O)c3)o2)cc1 [AV15A36] | > 100 |
| Cc1nnc(N/N=C/c2ccc(-c3ccccc3C(=O)O)o2)n1N [AV15A37] | > 100 |
| COc1cc(C(=O)N/N=C/c2ccc(-c3cccc(C(=O)O)c3)o2)cc(OC)c1OC [AV15A38] | > 100 |
| Clc1ccc(-c2ccc(/C=N/Nc3nc(Nc4ccccc4)nc(Nc4ccccc4)n3)o2)cc1 [AV15A39] | > 100 |
| O=C(N/N=C/c1ccc(-c2ccc(Cl)c(C(=O)O)c2)o1)c1ccncc1 [AV15A40] | 90 ± 18 |
| O=C(N/N=C/c1ccc(-c2ccc(Cl)c(C(=O)O)c2)o1)c1ccc(F)cc1 [AV15A41] | > 100 |
| O=C(O)c1cccc(-c2ccc(/C=N/Nc3nc4ccccc4s3)o2)c1 [AV15A43] | 63 ± 7 |
| CC1=C(C#N)c2nc(N)c(C#N)c(C)c2/C1=C/c1ccc(-c2ccc(C(=O)O)c(Cl)c2)o1 [AV15A44] | > 100 |
| CC1=C(C#N)c2nc(N)c(C#N)c(C)c2/C1=C/c1ccc(-c2ccccc2C(=O)O)o1 [AV15A45] | 91 ± 16 |
| COC(=O)c1ccccc1-c1ccc(/C=C(\C#N)c2nc3ccccc3[nH]2)o1 [AV15A46] | > 100 |
| O=C(Cc1ccc(F)cc1)N/N=C/c1ccc(-c2ccc(Cl)c(C(=O)O)c2)o1 [AV15A47] | > 100 |
| CC1=C(C#N)c2nc(N)c(C#N)c(C)c2/C1=C/c1ccc(-c2ccc(F)cc2)o1 [AV15A48] | > 100 |
| CC1=C(C#N)c2nc(N)c(C#N)c(C)c2/C1=C/c1ccc(-c2ccccc2C(=O)O)o1 [AV15A54] | > 100 |
| O=C(O)c1cccc(-c2ccc(/C=N/Nc3nc4nonc4nc3Nc3ccc(F)cc3)o2)c1 [AV30] | 10 ± 3 |
| CC(C)(C)c1ccc(C2C(C(=O)c3ccc(F)cc3)=C(O)C(=O)N2c2nncs2)cc1 (stereo not drawn) [Compound M28A2] | 64 ± 28 |
| O=C(O)CCCCCN1C(=O)C(O)=C(C(=O)c2ccc(Cl)cc2)C1c1ccc2c(c1)OCO2 (stereo not drawn) [Compound T38] | 25 |
| Cc1ccc(C2C(C(=O)c3ccc(Cl)cc3)=C(O)C(=O)N2CC(=O)O)cc1 (stereo not drawn) [Compound X81] | 84 ± 23 |
| Cc1ccc(C(=O)C2=C(O)C(=O)N(CCCn3ccnc3)C2c2ccc(Cl)cc2)cc1 (stereo not drawn) [Compound X155] | 93 ± 12 |

Same assay, conditions: wild-type IN 200 nM, 7.5 mM MnCl2; read-out: Inhibition of IN Catalytic Activities IC50 (μM) 3′-processing

| SMILES | IC50 [µM] |
| --- | --- |
| O=C(O)c1cccc(-c2ccc(/C=N/Nc3nc4nonc4nc3Nc3ccc(F)cc3)o2)c1 [AV30] | 10 |
